What was measured:
[1] = cited from earlier work
physchem = assay type: physicochemical
Source text: Atomoxetine HCl (API, active pharmaceutical ingredient) has good aqueous solubility. […] Human saliva has a pH normal range of 6.2-7.6 with 6.7 being the average pH. […] In the oral cavity, the pH is maintained near neutrality (6.7-7.3) by the saliva.
It is also evident that the solubilized form of atomoxetine is going to have a direct impact on taste buds thereby causing immediate bitterness upon drinking the oral solution.

Row | solubility (physchem; aqueous buffer, Absolute Solubility) | solubility (physchem; pH 4.5, aqueous buffer, Absolute Solubility) | solubility (physchem; pH 6.8, aqueous buffer, Absolute Solubility) | solubility (physchem; pH 6.8, aqueous buffer, solubility) | solubility (physchem; pH 7.4, aqueous buffer, Absolute Solubility) | solubility (physchem; simulated gastric fluid, Absolute Solubility) | solubility (physchem; water, Absolute Solubility) | Compound | size of self-assembled nanosized aggregates ([1]; in water above CMC) | critical micellar concentration (CMC) ([1]; in water)
1 | – | – | – | – | – | – | – | D-α-Tocopherol Polyethylene Glycol Succinate [Vitamin E TPGS] | about 13 nm | 0.02 wt %
2 | 12.2 mg/mL | 33.9 mg/mL | 3.53 mg/mL | 2.7 to 3.5 mg/mL | 2.75 mg/mL | 13.1 mg/mL | 24.1 mg/mL | CNCC[C@@H](Oc1ccccc1C)c1ccccc1.Cl [Atomoxetine HCl, (-)-N-Methyl-3-phenyl-3-(o-tolyloxy)-propylamine hydrochloride] | – | –
